From US9309276B2, “Synthetic lipid A derivative” (University of Georgia Research Foundation, Inc., priority 2007, dated 2016)
Like-named read-outs stand apart in the source and are kept apart here.

Assays:
Type in all cases: cell-based
[1] = test system: RAW 264.7 γNO(−) cells; test: Cytokine induction and ELISAs in mouse macrophages (RAW 264.7 γNO(−) cells); settings: for EC50: Example II, ELISA, best-fit value; for EC50 / TNF-α and IFN-β production, dose response (in words): supernatant, 5.5 h; for TNF-α and IFN-β production, dose response (in words): wide range of concentrations
Procedure: Mouse macrophages (RAW 264.7 γNO(−) cells) were exposed over a wide range of concentrations to compounds 1-5 and E. coli 055:B5 LPS. After 5.5 hours, the supernatants were harvested and examined for mouse TNF-α and IFN-β using a commercial and in-house developed capture ELISA assay, respectively. Potencies (EC50, concentration producing 50% activity) and efficacies (maximal level of production) were determined by fitting the dose-response curves to a logistic equation using PRISM software. […] It has also been shown that removal of the KDO moieties by mild acidic treatment reduces cellular responses (Demchenko et al., J. Am. Chem. Soc. 2003, 125, 6103-6112).
Having established the EC50 values of TNF-α and IFN-β secretion by compounds 1-5 and E. coli 055:B5 LPS, attention was focused on IL-6, IP-10, RANTES, and IL-1β responses. Thus, the previously harvested supernatants were analyzed for these cytokines using capture ELISA assays (FIG. 4, Table 1). For IL-6, IP-10, and RANTES, a short incubation time of 5.5 hrs was sufficient for detection. To achieve significant IL-1β secretion, the incubation had to be extended to 24 hrs. […] IL-1β is expressed as a pro-protein (pro-IL-1β), which is cleaved by caspase-1 into its active form (IL-1β), which is then secreted. Indeed, analyzing IL-1β of the cell lysates by Western blotting confirmed that it was present as a pro-protein (data not shown). TNF-α is also produced as a pro-protein, which is proteolitically cleaved by tumor necrosis factor-α converting enzyme (TACE) (Skotnicki and Levin, Annu. Rep. Med. Chem. 2003, 38, 153-162; Duffy et al., Thromb. Haemost. 2003, 89, 622-631). […] Furthermore, for each of the synthetic compounds and LPS, EC50 values of secreted TNF-α and intracellular pro-IL-1β were very similar. However, EC50 values for secreted mature IL-1β were larger by as much as 100-fold.
RAW 264.7 γNO(−) cells were plated on the day of the exposure assay as 2×10^5 cells/well in 96-well tissue culture plates (Nunc). Cells were incubated with different stimuli for 5.5 and 24 hours in replicates of five. Culture supernatants were then collected, pooled, and stored frozen (−80° C.) until assayed for cytokine production. After removal of the supernatant, cells were lysed by adding PBS containing Tween 20 (0.01%) and BSA (1%) in the same volume as that of the supernatant and sonicating for 5 min. The cell lysates were pooled and stored frozen (−80° C.) until assayed for cytokine production.
All cytokine ELISAs were performed in 96-well MaxiSorp plates (Nunc). Cytokine DuoSet ELISA Development Kits (R&D Systems) were used for the cytokine quantification of mouse TNF-α, IL-6, IP-10, RANTES, and IL-1β according to the manufacturer's instructions. The absorbance was measured at 450 nm with wavelength correction set to 540 nm using a microplate reader (BMG Labtech). Concentrations of IFN-β in culture supernatants were determined as follows. ELISA MaxiSorp plates were coated with rabbit polyclonal antibody against mouse IFN-β (PBL Biomedical Laboratories). IFN-β in standards and samples was allowed to bind to the immobilized antibody. Rat anti-mouse IFN-β antibody (USBiological) was then added, producing an antibody-antigen-antibody “sandwich”. Next, horseradish peroxidase (HRP) conjugated goat anti-rat IgG (H+L) antibody (Pierce) and a chromogenic substrate for HRP 3,3′,5,5′-tetramethylbenzidine (TMB; Pierce) were added. After the reaction was stopped, the absorbance was measured at 450 nm with wavelength correction set to 540 nm. All cytokine values are presented as the means±SD of triplicate measurements, with each experiment being repeated three times.
Concentration-response data were analyzed using nonlinear least-squares curve fitting in Prism (GraphPad Software, Inc.). […] The Hillslope was set at 1 to be able to compare the EC50 values of the different inducers. […]

[2] = target: T1, human TLR2 (Homo sapiens, UniProt O60603); test: NF-κB activation in HEK 293T cells stably transfected with human TLR2; settings: 103/104 at 0.1, 1 and 10 μg mL−1; Pam3CysSK4 1 μg mL−1; 4 h
T1 construct: host or cells: HEK 293T
T1 sequence (O60603 21-784): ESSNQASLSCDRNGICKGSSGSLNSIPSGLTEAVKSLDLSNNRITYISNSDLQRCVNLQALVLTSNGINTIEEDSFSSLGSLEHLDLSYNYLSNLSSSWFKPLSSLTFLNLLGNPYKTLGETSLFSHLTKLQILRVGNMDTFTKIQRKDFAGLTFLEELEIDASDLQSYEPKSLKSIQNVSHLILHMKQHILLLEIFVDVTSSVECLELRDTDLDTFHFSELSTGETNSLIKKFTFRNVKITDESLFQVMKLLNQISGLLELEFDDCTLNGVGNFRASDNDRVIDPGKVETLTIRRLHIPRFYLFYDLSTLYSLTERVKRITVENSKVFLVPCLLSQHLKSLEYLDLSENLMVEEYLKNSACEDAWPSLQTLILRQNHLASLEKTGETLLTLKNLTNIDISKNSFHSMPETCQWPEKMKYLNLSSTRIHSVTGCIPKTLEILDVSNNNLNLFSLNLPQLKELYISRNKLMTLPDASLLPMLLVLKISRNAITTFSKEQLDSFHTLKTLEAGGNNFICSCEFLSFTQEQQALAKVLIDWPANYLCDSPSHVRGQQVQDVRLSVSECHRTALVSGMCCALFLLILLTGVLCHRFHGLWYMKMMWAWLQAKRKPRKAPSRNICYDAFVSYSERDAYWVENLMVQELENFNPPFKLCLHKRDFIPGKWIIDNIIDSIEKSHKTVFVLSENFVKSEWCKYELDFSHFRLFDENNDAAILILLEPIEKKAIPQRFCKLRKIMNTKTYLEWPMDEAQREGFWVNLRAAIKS
Procedure: (§1) Induction of NF-κB activation was determined in triplicate cultures of HEK 293T cells stably transfected with human or mouse (a) TLR4/MD2/CD14 and (b) TLR2 and transiently transfected with pELAM-Luc and pRL-TK plasmids. Forty-four h post-transfection, cells were treated with (B) E. coli LPS (10 ng mL^−1), (C) Pam3CysSK4 (1 μg mL^−1), (D, E and F) 103 (0.1, 1 and 10 μg mL^−1, respectively), (G, H and I) 104 (0.1, 1 and 10 μg mL^−1, respectively) or (A) were left untreated (control). Forty-eight h post-transfection, NF-κB activation was determined by firefly luciferase activity relative to Renilla luciferase activity. n.a. indicates not analyzed.
(§2) To examine the ability of the synthetic compounds to induce activation of NF-κB, HEK 293T cells were employed that were stably transfected with various immune receptors and transiently transfected with a plasmid containing the reporter gene pELAM-Luc (NF-κB-dependent firefly luciferase reporter vector) and a plasmid containing the control gene pRL-TK (Renilla luciferase control reporter vector) (FIG. 11). […] Although compound 104 is a weak activator of mouse TLR4, it could not induce the secretion of cytokines.
(§3) The day before transfection, HEK 293T wild type cells and HEK 293T cells stably transfected with human and murine TLR4/MD2/CD14 and human and murine TLR2 were plated in 96-well tissue culture plates (16,000 cells/well). The next day, cells were transiently transfected using PolyFect Transfection Reagent (Qiagen) with expression plasmids pELAM-Luc (NF-κB-dependent firefly luciferase reporter plasmid, 50 ng/well) (Chow et al., J. Biol. Chem., 1999, 274, 10689-10692) and pRL-TK (Renilla luciferase control reporter vector, 1 ng/well; Promega) as an internal control to normalize experimental variations. […] The luciferase activity was measured using the Dual-Luciferase Reporter Assay System (Promega) according to the manufacturer's instructions and a combination luminometer/fluorometer microplate reader (BMG Labtech). […]

[3] = target: T2, mouse TLR2 (Mus musculus, UniProt Q9QUN7); test: NF-κB activation in HEK 293T cells stably transfected with mouse TLR2; settings: 103/104 at 0.1, 1 and 10 μg mL−1; Pam3CysSK4 1 μg mL−1; 4 h
T2 construct: host or cells: HEK 293T
T2 sequence (Q9QUN7 25-784): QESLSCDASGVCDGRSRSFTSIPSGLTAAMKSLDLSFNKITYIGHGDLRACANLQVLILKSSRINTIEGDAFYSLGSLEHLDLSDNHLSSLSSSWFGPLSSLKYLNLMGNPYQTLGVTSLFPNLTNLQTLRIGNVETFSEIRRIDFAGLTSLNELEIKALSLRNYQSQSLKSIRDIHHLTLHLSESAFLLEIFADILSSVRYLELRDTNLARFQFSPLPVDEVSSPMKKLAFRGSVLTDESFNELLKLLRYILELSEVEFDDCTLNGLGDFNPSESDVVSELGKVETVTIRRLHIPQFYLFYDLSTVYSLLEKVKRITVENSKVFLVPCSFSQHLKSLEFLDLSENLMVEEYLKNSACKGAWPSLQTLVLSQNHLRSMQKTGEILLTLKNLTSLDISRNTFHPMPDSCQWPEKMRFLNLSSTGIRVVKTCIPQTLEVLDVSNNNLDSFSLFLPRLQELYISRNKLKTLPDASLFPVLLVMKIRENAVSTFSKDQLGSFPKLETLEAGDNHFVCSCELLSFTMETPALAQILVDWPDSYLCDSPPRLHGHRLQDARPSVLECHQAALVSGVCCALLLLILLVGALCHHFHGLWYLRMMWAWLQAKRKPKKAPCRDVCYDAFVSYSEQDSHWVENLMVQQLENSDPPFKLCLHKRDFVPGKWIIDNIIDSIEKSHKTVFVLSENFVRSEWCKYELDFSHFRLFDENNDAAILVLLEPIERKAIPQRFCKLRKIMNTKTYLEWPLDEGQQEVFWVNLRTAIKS
Procedure: as §1, §2, §3

[4] = at the highest concentration tested

Molecule | EC50 ([1]; read-out: EC50 IFN-β) | EC50 ([1]; read-out: EC50 TNF-α) | TNF-α and IFN-β production, dose response (in words) [1] | other results
3-O—[(R)-3-Hydroxy-dodecanoyl]-2-deoxy-2-[(R)-3-dodecanoyloxy-tetradecanoylamino]-(R)-D-glucopyranosyl-(1→6)-2-[(R)-3-hydroxy-dodecanoylamino]-3-O—[(R)-3-dodecanoyloxy-dodecanoyl]-2-deoxy-α-D-glucopyranoside 1,4′-bisphosphate [lipid A 51] | 4 nM | 1.5 nM |  | 
CCCCCCCCCCCCCCCC(=O)O[C@H](CCCCCCCCCCC)CC(=O)N[C@H]1[C@@H](OP(=O)(O)O)O[C@H](CO[C@@H]2O[C@H](CO)[C@@H](OP(=O)(O)O)[C@H](OC(=O)C[C@@H](CCCCCCCCCCC)OC(=O)CCCCCCCCCCCCC)[C@H]2NC(=O)C[C@@H](CCCCCCCCCCC)OC(=O)CCCCCCCCCCC)[C@@H](O)[C@@H]1OC(=O)C[C@H](O)CCCCCCCCCCC [Lipid A 3, 6-O-{2-Deoxy-2-[(R)-3-dodecanoyloxy-tetradecanoylamino]-3-O—[(R)-3-tetradecanoyloxy-tetradecanoyl]-β-D-glucopyranosyl}-2-deoxy-2-[(R)-3-hexadecanoyl-tetradecanoylamino]-3-O—[(R)-3-hydroxy-tetradecanoyl]-α-D-glucopyranose 1,4′-bisphosphate] |  |  | only a partial response at the highest concentration tested | formation of IL-6, RANTES, and IL-1β [1, 4]: no formation; production of TNF-α, IFN-β, and IP-10 [1, 4]: induced the production
CCCCCCCCCCCCCCCC(=O)O[C@H](CCCCCCCCCCC)CC(=O)N[C@@H]1[C@@H](OC(=O)C[C@H](O)CCCCCCCCC)[C@H](O)[C@@H](CO[C@@H]2O[C@H](CO)[C@@H](O)[C@H](OC(=O)C[C@@H](CCCCCCCCC)OC(=O)CCCCCCCCCCC)[C@H]2NC(=O)C[C@@H](CCCCCCCCCCC)OC(=O)CCCCCCCCCCC)O[C@@H]1O [Lipid A 5, 6-O-{2-Deoxy-3-O—[(R)-3-dodecanoyloxy-dodecanoyl]-2-[(R)-3-dodecanoyloxy-tetradecanoylamino]-β-D-glucopyranosyl}-2-deoxy-2-[(R)-3-hexadecanoyloxy-tetredecanoylamino]-3-O—[(R)-3-hydroxy-dodecanoyl]-α-D-glucopyranose] |  |  | inactive | 
(3-Deoxy-α-D-manno-oct-2-ulopyranosyl)onate-(2->6)-3-O—[(R)-3-hydroxy-dodecanoyl]-2-deoxy-2-[(R)-3-dodecanoyloxy-tetradecanoyl]-(R)-D-glucopyranosyl-(1→6)-3-O—[(R)-3-hydroxy-dodecanoyl]-2-deoxy-2-[(R)-3-dodecanoyloxy-tetradecanoyl]-α-D-glucopyranose 1,4′-biphosphate [lipid A 53] | 0.2 nM | 0.092 nM |  | 
Pam3CysSK4 [reference compound] |  |  |  | NF-κB activation, human TLR2 [2]: able to activate; NF-κB activation, mouse TLR2 [3]: able to activate
